Results reported in US11414431B2, “Substituted pyrazolo[1,5-a]pyrimidines as TYK2 inhibitors” (Nimbus Lakshmi, Inc., priority 2018, dated 2022).

Tested on: IL-12 induced STAT4 phosphorlyation mediated by TYK2/JAK2
Experiment: IL-12 Induced pSTAT4 in Human PBMC
Assay type: cell-based
Details: 1.7 ng/mL IL-12 for 30 minutes
Procedure: Human PBMC were isolated from buffy coat and are stored frozen for assays as needed. […] 15 μL of compound or DMSO was added to the well at the desired concentrations and incubated at 1 hr at 37° C. 15 μL of stimulus (final concentration of 1.7 ng/mL IL-12) was added for 30 minutes prior to pSTAT4 and total STAT4 analysis using cell lysates prepared and analyzed by MSD reagents as per manufacturer protocol. The final DMSO concentration of compound in the assay was 0.1%.
The IL-12 induced pSTAT4 assay evaluates the inhibition of IL-12 induced STAT4 phosphorlyation mediated by TYK2/JAK2 (heterpdimeric complex).

IC50, < 0.1 µM:
CNc1cc(Nc2cccn([C@@H]3CC[C@@H]3O)c2=O)nc2c(C(=O)N[C@H]3CCC3(F)F)cnn12 [Compound I-290]
CNc1cc(Nc2cccn([C@H]3C[C@H](OC)C3)c2=O)nc2c(C(=O)NC3CCC3(F)F)cnn12 (some centres unmarked) [Compound I-292]
CNc1cc(Nc2cccn([C@H]3C[C@H](OC)C3)c2=O)nc2c(C(=O)N[C@H]3CCC3(F)F)cnn12 [Compound I-293]
CNc1cc(Nc2cccn([C@H]3C[C@@H](OC)C3)c2=O)nc2c(C(=O)NC3CCC3(F)F)cnn12 (some centres unmarked) [Compound I-295]
CNc1cc(Nc2cccn([C@H]3C[C@@H](OC)C3)c2=O)nc2c(C(=O)N[C@H]3CCC3(F)F)cnn12 [Compound I-296]
CNc1cc(Nc2cccn([C@@H]3CCC[C@@H]3O)c2=O)nc2c(C(=O)NC3CCC3(F)F)cnn12 (some centres unmarked) [Compound I-303]
CNc1cc(Nc2cccn([C@@H]3CCC[C@@H]3O)c2=O)nc2c(C(=O)N[C@@H]3CCC3(F)F)cnn12 [Compound I-305]
CNc1cc(Nc2cccn([C@H]3[C@@H]4COC[C@@H]43)c2=O)nc2c(C(=O)NC3CCC3(F)F)cnn12 (some centres unmarked) [Compound I-306]
CNc1cc(Nc2cccn(C3CCOCC3)c2=O)nc2c(C(=O)NC3CCC3(F)F)cnn12 (centres unmarked) [Compound I-309]
CNc1cc(Nc2cccn(C3CCOCC3)c2=O)nc2c(C(=O)N[C@@H]3CCC3(F)F)cnn12 [Compound I-311]
CNc1cc(Nc2cccn([C@H]3CCCOC3)c2=O)nc2c(C(=O)NC3CCC3(F)F)cnn12 (some centres unmarked) [Compound I-312]
CNc1cc(Nc2cccn([C@H]3CCCOC3)c2=O)nc2c(C(=O)N[C@@H]3CCC3(F)F)cnn12 [Compound I-314]
CNc1cc(Nc2cccn([C@@H]3CCCOC3)c2=O)nc2c(C(=O)NC3CCC3(F)F)cnn12 (some centres unmarked) [Compound I-315]
CNc1cc(Nc2cccn([C@@H]3CCCOC3)c2=O)nc2c(C(=O)N[C@@H]3CCC3(F)F)cnn12 [Compound I-317]
CNc1cc(Nc2cccn(-c3ccccn3)c2=O)nc2c(C(=O)NC3CCC3(F)F)cnn12 (centres unmarked) [Compound I-318]
CNc1cc(Nc2cccn(-c3ccccn3)c2=O)nc2c(C(=O)N[C@@H]3CCC3(F)F)cnn12 [Compound I-320]
CNc1cc(Nc2cccn(-c3ccc(C)nc3)c2=O)nc2c(C(=O)NC3CCC3(F)F)cnn12 (centres unmarked) [Compound I-324]
CNc1cc(Nc2cccn(-c3ccc(C)nc3)c2=O)nc2c(C(=O)N[C@H]3CCC3(F)F)cnn12 [Compound I-325]
CNc1cc(Nc2cccn([C@@H]3CCC[C@H](C#N)C3)c2=O)nc2c(C(=O)NC3CCC3(F)F)cnn12 (some centres unmarked) [Compound I-327]
CNc1cc(Nc2cccn([C@@H]3CCC[C@H](C#N)C3)c2=O)nc2c(C(=O)N[C@H]3CCC3(F)F)cnn12 [Compound I-328]
CNc1cc(Nc2cccn([C@H]3CCC[C@@H](C#N)C3)c2=O)nc2c(C(=O)NC3CCC3(F)F)cnn12 (some centres unmarked) [Compound I-330]
CNc1cc(Nc2cccn([C@H]3CCC[C@@H](C#N)C3)c2=O)nc2c(C(=O)N[C@H]3CCC3(F)F)cnn12 [Compound I-331]
CNc1cc(Nc2cccn([C@@H]3CCOC[C@@H]3OC)c2=O)nc2c(C(=O)NC3CCC3(F)F)cnn12 (some centres unmarked) [Compound I-336]
CNc1cc(Nc2cccn([C@@H]3CCOC[C@@H]3OC)c2=O)nc2c(C(=O)N[C@@H]3CCC3(F)F)cnn12 [Compound I-338]
CNc1cc(Nc2cccn(C(C)C)c2=O)nc2c(C(=O)NC3CC[C@]3(C)O)cnn12 (some centres unmarked) [Compound I-339]
CNc1cc(Nc2cccn(C3CCOCC3)c2=O)nc2c(C(=O)NC3CC[C@]3(C)O)cnn12 (some centres unmarked) [Compound I-348]
CNc1cc(Nc2cccn(C3CCOCC3)c2=O)nc2c(C(=O)N[C@H]3CC[C@]3(C)O)cnn12 [Compound I-349]
CNc1cc(Nc2cccn([C@H]3CC[C@@H]3O)c2=O)nc2c(C(=O)N[C@@H]3CC[C@@]3(C)OC)cnn12 [Compound I-377]
CNc1cc(Nc2cccn([C@H]3CCC[C@H]3O)c2=O)nc2c(C(=O)NC3CC[C@]3(C)OC)cnn12 (some centres unmarked) [Compound I-390]
CNc1cc(Nc2cccn([C@H]3CCC[C@H]3O)c2=O)nc2c(C(=O)N[C@H]3CC[C@]3(C)OC)cnn12 [Compound I-391]
CNc1cc(Nc2cccn(C3CCOCC3)c2=O)nc2c(C(=O)NC3CC[C@@]3(C)OC)cnn12 (some centres unmarked) [Compound I-405]
CNc1cc(Nc2cccn(C3CCOCC3)c2=O)nc2c(C(=O)N[C@H]3CC[C@]3(C)OC)cnn12 [Compound I-407]
CNc1cc(Nc2cccn([C@H]3[C@@H]4COC[C@@H]43)c2=O)nc2c(C(=O)N[C@@H]3CC[C@@]3(C)OC)cnn12 [Compound I-410]
CNc1cc(Nc2cccn(-c3ncccc3F)c2=O)nc2c(C(=O)NC3CC[C@@]3(C)OC)cnn12 (some centres unmarked) [Compound I-414]
CNc1cc(Nc2cccn(-c3ncccc3F)c2=O)nc2c(C(=O)N[C@@H]3CC[C@@]3(C)OC)cnn12 [Compound I-415]
CNc1cc(Nc2cccn([C@H]3CCCC[C@H]3O)c2=O)nc2c(C(=O)NC3CC[C@]3(C)OC)cnn12 (some centres unmarked) [Compound I-423]
CNc1cc(Nc2cccn([C@H]3CCCC[C@H]3O)c2=O)nc2c(C(=O)N[C@H]3CC[C@]3(C)OC)cnn12 [Compound I-424]
CNc1cc(Nc2cccn([C@H]3CC[C@H](OC)CC3)c2=O)nc2c(C(=O)N[C@@H]3CC[C@@]3(C)OC)cnn12 [Compound I-428]
CNc1cc(Nc2cccn([C@H]3CC[C@@H](OC)CC3)c2=O)nc2c(C(=O)N[C@@H]3CC[C@@]3(C)OC)cnn12 [Compound I-431]
CNc1cc(Nc2cccn([C@H]3C[C@H](F)C3)c2=O)nc2c(C(=O)N[C@H]3CC[C@H](O)C3)cnn12 [Compound I-436]
CNc1ccc(-c2cc(NC)n3ncc(C(=O)N[C@H]4CC[C@@H]4F)c3n2)n2ccnc12 [Compound I-481]
CNc1ccc(-c2cc(NC)n3ncc(C(=O)NC4CC[C@H]4F)c3n2)n2ccnc12 (some centres unmarked) [Compound I-483]
CNc1ccc(-c2cc(NC)n3ncc(C(=O)NC4CC[C@H]4O)c3n2)n2ccnc12 (some centres unmarked) [Compound I-484]
CNc1ccc(-c2cc(NC)n3ncc(C(=O)N[C@H]4CC[C@H]4O)c3n2)n2ccnc12 [Compound I-485]
CNc1cc(-c2cn([C@H]3C[C@@H](O)C3)c3ncccc23)nc2c(C(=O)NC3CC[C@@H]3F)cnn12 (some centres unmarked) [Compound I-510]
CNc1cc(-c2cn([C@H]3C[C@@H](O)C3)c3ncccc23)nc2c(C(=O)N[C@H]3CC[C@@H]3F)cnn12 [Compound I-511]
CNc1cc(-c2cn(C3CN(C)C3)c3ncccc23)nc2c(C(=O)NC3CC[C@@H]3F)cnn12 (some centres unmarked) [Compound I-513]
CNc1cc(-c2cn(C3CN(C)C3)c3ncccc23)nc2c(C(=O)N[C@H]3CC[C@@H]3F)cnn12 [Compound I-514]
CNc1cc(-c2cn([C@H]3COC[C@@H]3OC)c3ncccc23)nc2c(C(=O)N[C@H]3CC[C@@H]3F)cnn12 [Compound I-523]
CNc1cc(-c2cn([C@H]3COC[C@@H]3OC)c3ncccc23)nc2c(C(=O)NC3CC[C@H]3F)cnn12 (some centres unmarked) [Compound I-528]
CNc1cc(-c2cn([C@H]3COC[C@@H]3OC)c3ncccc23)nc2c(C(=O)N[C@H]3CC[C@H]3F)cnn12 [Compound I-529]
CNc1cc(-c2cn([C@H]3COC[C@@H]3OC)c3ncccc23)nc2c(C(=O)N[C@@H]3CC[C@@H]3F)cnn12 [Compound I-530]
CNc1cc(-c2cn([C@@H]3COC[C@H]3OC)c3ncccc23)nc2c(C(=O)NC3CC[C@H]3F)cnn12 (some centres unmarked) [Compound I-531]
CNc1cc(-c2cn([C@@H]3CCOC[C@H]3O)c3ncccc23)nc2c(C(=O)N[C@H]3CC[C@@H]3F)cnn12 [Compound I-538]
CNc1cc(-c2cn([C@H]3CCOC[C@H]3OC)c3ncccc23)nc2c(C(=O)NC3CC[C@@H]3F)cnn12 (some centres unmarked) [Compound I-546]
CNc1cc(-c2cn([C@@H]3CC3(F)F)c3ncccc23)nc2c(C(=O)NC3CC[C@H]3O)cnn12 (some centres unmarked) [Compound I-548]
CNc1cc(-c2cn([C@@H]3CC3(F)F)c3ncccc23)nc2c(C(=O)N[C@H]3CC[C@H]3O)cnn12 [Compound I-549]
CNc1cc(-c2cn([C@H]3CC3(F)F)c3ncccc23)nc2c(C(=O)N[C@H]3CC[C@H]3O)cnn12 [Compound I-552]
CNc1cc(-c2cn(C3COC3)c3ncccc23)nc2c(C(=O)N[C@H]3CC[C@H]3O)cnn12 [Compound I-555]
